Experimental findings from patent publication US7402548B2, “Benzoxazole compounds, process for producing the same and herbicides” (Kyoyu Agri Co., Ltd., priority 2000, dated 2008) are described below.

For series [1], the system named is young rice plant. Nature of the series: Herbicidal test for paddy field. Also: key: 0: normal development; 1: Less damaged; 2: Slightly damaged; 3: Moderately damaged; 4: Severely damaged; 5: All killed. In kind it is in vivo. The note with it: 500 g/ha, dropwise addition to paddy water at 1.5 leaf stage of barnyard grass; glass house 25° C., 3 weeks; rank 0-5 vs non-treated district. On the procedure: Then, the pots were filled with water to a depth of 3 cm. […] These plants were controlled in a glass house at an average temperature of 25° C. for 3 weeks, and then herbicidal effects thereof were investigated. The herbicidal effects are evaluated according to the following 6 ranks as compared with non-treated district. […] Incidentally, “-” in the column means not investigated.

For series [2], the system named is bulrush. Put plainly: Herbicidal test for paddy field. Also: key: 0: normal development; 1: Less damaged; 2: Slightly damaged; 3: Moderately damaged; 4: Severely damaged; 5: All killed. The series is classed as in vivo, Scrips juncoides. As to conditions: 500 g/ha, dropwise addition to paddy water at 1.5 leaf stage of barnyard grass; glass house 25° C., 3 weeks; rank 0-5 vs non-treated district. The method in brief: (§1)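 Wettable-powder formulations in water with 0.05% surfactant were dripped onto flooded (3 cm) Ube alluvial-soil pots at 500 g/ha, applied at barnyard grass 1.5-leaf stage. Plants were kept in a glasshouse at 25° C. for 3 weeks. Damage was scored 0 (normal) to 5 (all killed) versus untreated plants.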

The subject of series [3] is Cyperus serotinus Rottb. Put plainly: Herbicidal test for paddy field. Also: key: 0: normal development; 1: Less damaged; 2: Slightly damaged; 3: Moderately damaged; 4: Severely damaged; 5: All killed. In kind it is in vivo. As to conditions: 500 g/ha, dropwise addition to paddy water at 1.5 leaf stage of barnyard grass; glass house 25° C., 3 weeks; rank 0-5 vs non-treated district. The method in brief: as §1
Series [4] concerns arrowhead. Nature of the series: Herbicidal test for paddy field. Also: key: 0: normal development; 1: Less damaged; 2: Slightly damaged; 3: Moderately damaged; 4: Severely damaged; 5: All killed. In kind it is in vivo, Sagittaria pygmaea. As to conditions: 500 g/ha, dropwise addition to paddy water at 1.5 leaf stage of barnyard grass; glass house 25° C., 3 weeks; rank 0-5 vs non-treated district. The method in brief: as §1
The test system of series [5] is soybean. Nature of the series: Soil treatment test for upland field. On the set-up: key: 0 = normal development, 5 = all killed. The note with it: 500 g/ha, 3 weeks, glass house 25° C. In kind it is in vivo. An outline of the steps: (§2)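 Using a pre-emergence soil application at 500 g/ha, treated pots were held 3 weeks in a glass house averaging 25° C. Injury was graded on a 0–5 scale against non-treated pots; "-" marks entries not investigated.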

The subject of series [6] is annual bluegrass. Nature of the series: Soil treatment test for upland field. The arrangement: key: 0 = normal development, 5 = all killed. The series is classed as in vivo, Poa annua. The note with it: 500 g/ha, 3 weeks, glass house 25° C. The method in brief:
as §2

Series [7] has as its system barnyardgrjass. Put plainly: Foliar spread test for upland field. The note with it: foliar spray, 500 ppm, 3 weeks, glass house 25° C. On the set-up: key: 0 = normal development, 5 = all killed (6 ranks vs. untreated). The series is classed as in vivo, Eschinochloa crusgalli. An outline of the steps:
(§3)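 Plants grown about 2 weeks at 25 °C in volcanic ash soil were sprayed with wettable powder diluted to 500 ppm in water with 0.5% surfactant. After 3 weeks at 25 °C, damage was scored 0 (normal) to 5 (all killed) against untreated plants.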

The subject of series [8] is green foxtail. Nature of the series: Foliar spread test for upland field. In kind it is in vivo, Setaria viridis. On the set-up: key: 0 = normal development, 5 = all killed (6 ranks vs. untreated). As to conditions: foliar spray, 500 ppm, 3 weeks, glass house 25° C. The method in brief:
as §3

In series [9] the test system is blackgrass. Nature of the series: Foliar spread test for upland field. In kind it is in vivo, Alopecurus aegualis. On the set-up: key: 0 = normal development, 5 = all killed (6 ranks vs. untreated). As to conditions: foliar spray, 500 ppm, 3 weeks, glass house 25° C. The method in brief:
as §3

The subject of series [10] is annual bluegrass. Nature of the series: Foliar spread test for upland field. The series is classed as in vivo, Poa annua. The note with it: foliar spray, 500 ppm, 3 weeks, glass house 25° C. The arrangement: key: 0 = normal development, 5 = all killed (6 ranks vs. untreated). An outline of the steps:
as §3

Series [11] deals with livid amaranth. Nature of the series: Foliar spread test for upland field. In kind it is in vivo, Amaranthus lividus. On the set-up: key: 0 = normal development, 5 = all killed (6 ranks vs. untreated). The note with it: foliar spray, 500 ppm, 3 weeks, glass house 25° C. An outline of the steps:
as §3

Series [12] concerns velvetleaf. Nature of the series: Foliar spread test for upland field. In kind it is in vivo, Abutilon theophrasti. The arrangement: key: 0 = normal development, 5 = all killed (6 ranks vs. untreated). The note with it: foliar spray, 500 ppm, 3 weeks, glass house 25° C. The method in brief: as §3
The subject of series [13] is cotton. Nature of the series: Soil treatment test for upland field. In kind it is in vivo. As to conditions: 500 g/ha, 3 weeks, glass house 25° C. The method in brief: as §2

Consider `FC(F)(F)c1cccc(Oc2cccc(-c3nc4cc(Cl)ccc4o3)n2)c1` [I-a-3, 6-(5-chlorobenzoxazol-2-yl)-2-(3-trifluoromethylphenoxy)pyridine], for which, in series [1], the “Effects Young rice plant” value came to 2. For the same compound, in series [2], the “Effects Bulrush” value came to 0. Moreover, the “Effects Cyperus serotinus Rottb.” value in series [3] stood at 0. For the same compound, the “Effects Arrowhead” value in series [4] is recorded as 0. The “Effects Soybean” value in series [5] is reported as 3. In addition, the “Effects Annual bluegrass” value in series [6] is reported as 5; in [10], 4. Besides, in [7], the “Effects Barnyardgrass” value turned out to be 1. Further, the “Effects Green foxtail” value in series [8] came to 3. Moreover, the “Effects Blackgrass” value in series [9] came out at 1. The “Effects Livid amaranth” value in series [11] came out at 5. Besides, in series [12], the “Effects Velvetleaf” value amounted to 4.

Regarding `Fc1ccc2nc(-c3cccc(Oc4cccc(C(F)(F)F)c4)n3)oc2c1` [I-a-6, 6-(6-fluorobenzoxazol-2-yl)-2-(3-trifluoromethylphenoxy)pyridine], the “Effects Young rice plant” value in series [1] was determined as 3. Further, the “Effects Cyperus serotinus Rottb.” value in series [3] came out at 2. In series [4], the “Effects Arrowhead” value turned out to be 0. Besides, the “Effects Sotton” value in series [13] is reported as 1. Further, the “Effects Annual bluegrass” value in series [6] and in series [10] was 5 in each case. In addition, the “Effects Barnyardgrass” value in series [7] came out at 5. For the same compound, the “Effects Green foxtail” value in series [8] came out at 5. Besides, the “Effects Blackgrass” value in series [9] stood at 5. The “Effects Livid amaranth” value in [11] is on record as 5. Also, the “Effects Velvetleaf” value in series [12] turned out to be 5.

On to `Fc1ccc2nc(-c3cccc(Oc4ccc(F)c(C(F)(F)F)c4)n3)oc2c1` [I-a-7], for which the “Effects Bulrush” value in [2] amounted to 0. In addition, the “Effects Cyperus serotinus Rottb.” value in series [3] is on record as 0. The “Effects Arrowhead” value in [4] is listed as 0. For the same compound, in series [5], the “Effects Soybean” value is 2. Also, in [13], the “Effects Sotton” value was found to be 0. Further, the “Effects Annual bluegrass” value in series [6] is 5; in series [10] it was 3. For the same compound, the “Effects Barnyardgrass” value in series [7] is on record as 1. In [8], the “Effects Green foxtail” value worked out at 3. In addition, in series [9], the “Effects Blackgrass” value was 1. For the same compound, the “Effects Livid amaranth” value in series [11] is 5. Besides, in series [12], the “Effects Velvetleaf” value is 3.
